Series [1] deals with ventricular arrhythmias induced by chloroform. The series can be described thus: Antiarrhythmic activity: prevention of chloroform-induced ventricular flutter and fibrillation in mice. Conditions: for ED40 / ED50 / ED20: Mus musculus, sc, 0.5 h; for ED50: read-out: ED50 (95% confidence limit); for Therapeutic index: ratio of LD50 and ED50. How it is done:
At the time when they ceased to breathe, electrocardiogram of each animal was recorded to observe the flutter and fibrillation of the ventricle.
The abnormalities of ventriculus as observed in these animals can be prevented by previous administration of a substance showing antiarrhythmic activity. A compound of this invention, at various dosages, was subcutaneously injected to mice grouped by 29-40 heads. Thirty minutes later these mice were treated with chloroform to induce arrhythmias. Prophylaxis percentages of the flutter and fibrillation of ventricle for each dosage were calculated.

In the next series the test system is ddY strain male mice. The series can be described thus: in vivo. The settings on record: mouse.
The nature of the next series: in vivo. Conditions: mouse.

Structures are written as SMILES.

Take `COc1cccc(NC(=O)CC23CCCN2CCC3)c1` [Compound 6, N-(3-methoxyphenyl)-8-pyrrolizidineacetamide]: in series [1], the ED40 worked out at 100 mg/kg and the ED50 was > 100 mg/kg. This compound came in with an LD50 with ddY strain male mice of 417 mg/kg.
Consider `Cc1ccc(C)c(NC(=O)CC23CCCN2CCC3)c1` [Compound 11, N-(2,5-dimethylphenyl)-8-pyrrolizidineacetamide], for which, in series [1], the ED50 worked out at 72 mg/kg and the Therapeutic index is given as 5.56. In the series with ddY strain male mice, this compound displayed an LD50 of 400 mg/kg.
With `Cc1ccccc1NC(=O)CC12CCCN1CCC2` [Compound 1, N-(2-methylphenyl)-8-pyrrolizidineacetamide], in series [1], the ED40 is 100 mg/kg and the ED50 is > 100 mg/kg. In the series with ddY strain male mice, this compound showed an LD50 of 385 mg/kg.
As for `Cc1cccc(C)c1NC(=O)CC12CCCN1CCC2` [Compound 12, N-(2,6-dimethylphenyl)-8-pyrrolizidineacetaminde], in series [1], the ED50 came out at 24 mg/kg.
`Cc1ccc(NC(=O)CC23CCCN2CCC3)cc1` [Compound 2, N-(4-methylphenyl)-8-pyrrolizidineacetamide] had an ED20 in series [1] of 100 mg/kg. This compound came in with a 50% lethal dose (LD50) in the series with ddY strain male mice of 413 mg/kg.
For the compound `Cc1cc(C)c(NC(=O)CC23CCCN2CCC3)c(C)c1` [Compound 18, N-(2,4,6-trimethylphenyl)-8-pyrrolizidineacetamide], in series [1], the ED50 was found to be 34 mg/kg and the Therapeutic index is listed as 9.09. Further, the LD50 with ddY strain male mice is 309 mg/kg.
`O=C(CC12CCCN1CCC2)Nc1c(Cl)cccc1Cl` [Compound 16, N-(2,6-dichlorophenyl)-8-pyrrolizidineacetamide]: in series [1], the ED20 is 100 mg/kg and the ED50 was > 100 mg/kg. The LD50 in the series on ddY strain male mice was 200 mg/kg.
On to `COc1ccc(OC)c(NC(=O)CC23CCCN2CCC3)c1` [Compound 15, N-(2,5-dimethoxyphenyl)-8-pyrrolizidineacetamide], for which, in series [1], the ED50 is 90 mg/kg and the Therapeutic index came out at 2.26. Also, the LD50 with ddY strain male mice amounted to 203 mg/kg.
Consider `CCc1cccc(CC)c1NC(=O)CC12CCCN1CCC2` [Compound 17, N-(2,6-diethylphenyl)-8-pyrrolizidineacetamide], for which, in series [1], the ED50 was found to be 28 mg/kg and the Therapeutic index is 9.93. In the series with ddY strain male mice, this compound gave an LD50 of 278 mg/kg.
Regarding `Nc1ccccc1NC(=O)CC12CCCN1CCC2` [Compound 8, N-(2-aminophenyl)-8-pyrrolizidineacetamide], in series [1], the ED50 was determined as 100 mg/kg and the Therapeutic index is listed as 6.33. The LD50 in the series with ddY strain male mice is 633 mg/kg.
Consider `Cc1ccc(NC(=O)CC23CCCN2CCC3)c(C)c1` [Compound 10, N-(2,4-dimethylphenyl)-8-pyrrolizidineacetamide], for which, in series [1], the ED40 was found to be 100 mg/kg and the ED50 was > 100 mg/kg. For the same compound, the LD50 in “in vivo” is 398 mg/kg.
With `O=C(CC12CCCN1CCC2)Nc1ccccc1Br` [Compound 4, N-(2-bromophenyl)-8-pyrrolizidineacetamide], in series [1], the ED50 is 59 mg/kg and the Therapeutic index amounted to 7.54. This compound also yielded an LD50 in the series on ddY strain male mice of 445 mg/kg.
As for `COc1ccccc1NC(=O)CC12CCCN1CCC2` [Compound 5, N-(2-methoxyphynyl)-8-pyrrolizidineacetamide], in series [1], the ED40 stood at 100 mg/kg and the ED50 was > 100 mg/kg. For the same compound, in the series on ddY strain male mice, the LD50 came out at 381 mg/kg.
On to `Cc1cccc(NC(=O)CC23CCCN2CCC3)c1C` [Compound 9, N-(2,3-dimetylphenyl)-8-pyrrolizidineacetamide], for which, in series [1], the ED50 was 64 mg/kg and the Therapeutic index was 7.33. For the same compound, the LD50 in the series on ddY strain male mice was 469 mg/kg.
The corresponding values for `Cc1cc(C)cc(NC(=O)CC23CCCN2CCC3)c1` [Compound 14, N-(3,5-dimethylphenyl)-8-pyrrolizidineacetamide] are 52 mg/kg, 6.83 and 355 mg/kg.
In the case of `Cc1ccc(NC(=O)CC23CCCN2CCC3)cc1C` [Compound 13, N-(3,4-dimethylphenyl)-8-pyrrolizidineacetamide], in series [1], the median effective dose (ED50) came to 76 mg/kg and the Therapeutic index worked out at 7.36. Moreover, the LD50 in the series with ddY strain male mice was 559 mg/kg.
For the compound `COc1ccc(NC(=O)CC23CCCN2CCC3)cc1` [Compound 7, N-(4-methoxyphenyl)-8-pyrrolizidineacetamide], in series [1], the ED50 stood at 60 mg/kg and the Therapeutic index worked out at 4.80. In the series with ddY strain male mice, this compound came in with an LD50 of 288 mg/kg.
With `O=C(CC12CCCN1CCC2)Nc1ccccc1Cl` [Compound 3, N-(2-chlorophenyl)-8-pyrrolizidineacetamide], in series [1], the ED20 is 100 mg/kg and the ED50 was > 100 mg/kg. For the same compound, the LD50 with ddY strain male mice was 347 mg/kg.

Source of the values: patent US4564624A, “8-(Substituted N-phenylcarboxamidomethyl) pyrrolizidines and use thereof as antiarrhythmics” (Suntory Ltd., priority 1982, dated 1986).
